Measured values reported in ChEMBL document CHEMBL4376802, “State of the Art in Respiratory Syncytial Virus Drug Discovery and Development” (J Med Chem, 2019).

Key:
Human orthopneumovirus [1] = assay: Antiviral activity against RSV A2 infected in A549 cells incubated for 3 days by cell titer glo-based luminescence assay; type: functional, organism-based; settings: human respiratory syncytial virus, A2, A549, 72 h
Human orthopneumovirus [2] = assay: Antiviral activity against RSV A2 infected in Hep2 cells preincubated for 1 hr followed by RSV infection and measured after 3 days by ELISA method; type: functional, organism-based; settings: human respiratory syncytial virus, A2, HEp-2
[3] = Antiviral activity against RSV B-WST infected in Hep2 cells preincubated for 1 hr followed by RSV infection and measured after 3 days by ELISA method; type: functional, cell-based; settings: human respiratory syncytial virus, HEp-2
[4] = system: Respiratory syncytial virus; assay: Antiviral activity against Respiratory syncytial virus; type: functional, organism-based; settings: human respiratory syncytial virus
Human orthopneumovirus [5] = assay: Antiviral activity against RSV A2 infected in HAE-derived cells; type: functional, organism-based; settings: human respiratory syncytial virus
[6] = system: Respiratory syncytial virus; assay: Antiviral activity against Respiratory syncytial virus by CPE reduction assay; type: functional, organism-based; settings: human respiratory syncytial virus
[7] = system: Respiratory syncytial virus; assay: Antiviral activity against recombinant RSV infected in HeLa cells assessed as reduction in eGFP expression after 3 days by laser microscopic analysis; type: functional, organism-based; settings: human respiratory syncytial virus, 72 h
Human orthopneumovirus [8] = assay: Antiviral activity against RSV A2 infected in Hep2 cells by CPE reduction assay; type: functional, organism-based; settings: human respiratory syncytial virus, A2, HEp-2
[9] = Antiviral activity against RSV B-WST infected in Hep2 cells CPE reduction assay; type: functional, cell-based; settings: human respiratory syncytial virus, HEp-2
[10] = Inhibition of Respiratory syncytial virus RNA-dependent RNA polymerase
[11] = Oral bioavailability in BALB/c mouse; type: ADME, organism-based; settings: in vivo
Human orthopneumovirus [12] = assay: Antiviral activity against HRSV expressing m-cherry infected in Hep2 cells after 48 hrs post infection by fluorescence based assay; type: functional, organism-based; settings: human respiratory syncytial virus, HEp-2, 48 h
[13] = Oral bioavailability in rat; type: ADME, organism-based; settings: in vivo
[14] = Oral bioavailability in dog; type: ADME, organism-based, Canis lupus familiaris; settings: in vivo
Human orthopneumovirus [15] = assay: Antiviral activity against RSV type A; type: functional, organism-based; settings: human respiratory syncytial virus
Human orthopneumovirus [16] = assay: Antiviral activity against RSV type B; type: functional, organism-based; settings: human respiratory syncytial virus
Human respirovirus 3 = assay: Antiviral activity against Human parainfluenza virus 3; type: functional, organism-based
Hepatitis C virus = assay: Antiviral activity against Hepatitis C virus; type: functional, organism-based, Hepacivirus hominis
Influenza A virus = assay: Antiviral activity against influenza A virus; type: functional, organism-based
Human orthopneumovirus [17] = assay: Antiviral activity against RSV A2 infected in Hep2 cells assessed as reduction in virus-induced cytopathic effect after 5 days by resazurin dye based PCR analysis; type: functional, organism-based; settings: human respiratory syncytial virus, A2, HEp-2, 120 h
[18] = Antiviral activity against RSV B-WST infected in Hep2 cells assessed as reduction in virus-induced cytopathic effect after 6 days by resazurin dye based PCR analysis; type: functional, cell-based; settings: human respiratory syncytial virus, HEp-2, 144 h
[19] = Antiviral activity against RSV type A 1211 infected in Hep2 cells assessed as reduction in virus-induced cytopathic effect after 5 days by resazurin dye based PCR analysis; type: functional, cell-based; settings: human respiratory syncytial virus, 1211, HEp-2, 120 h
[20] = Antiviral activity against RSV type A Memphis 37 infected in Hep2 cells assessed as reduction in virus-induced cytopathic effect after 5 days by resazurin dye based PCR analysis; type: functional, cell-based; settings: human respiratory syncytial virus, Memphis 37, HEp-2, 120 h
[21] = Antiviral activity against RSV type A 689 infected in Hep2 cells assessed as reduction in virus-induced cytopathic effect after 5 days by resazurin dye based PCR analysis; type: functional, cell-based; settings: human respiratory syncytial virus, 689, HEp-2, 120 h
[22] = Antiviral activity against RSV type A 492 infected in Hep2 cells assessed as reduction in virus-induced cytopathic effect after 5 days by resazurin dye based PCR analysis; type: functional, cell-based; settings: human respiratory syncytial virus, 492, HEp-2, 120 h
[23] = Antiviral activity against RSV type A VAN1160 infected in Hep2 cells assessed as reduction in virus-induced cytopathic effect after 5 days by resazurin dye based PCR analysis; type: functional, cell-based; settings: human respiratory syncytial virus, VAN1160, HEp-2, 120 h
[24] = Antiviral activity against RSV type B 1276 infected in Hep2 cells assessed as reduction in virus-induced cytopathic effect after 5 days by resazurin dye based PCR analysis; type: functional; settings: human respiratory syncytial virus, 1276, HEp-2, 120 h; pooled result: one value given for 5 cell lines, strains, targets or settings
Human orthopneumovirus [25] = assay: Antiviral activity against RSV A infected in HeLa cells; type: functional, organism-based; settings: human respiratory syncytial virus, type A
[26] = Antiviral activity against RSV B infected in HeLa cells; type: functional, cell-based; settings: human respiratory syncytial virus
[27] = Plasma clearance in Beagle dog at 2 mg/ml, iv or 1.2 mg/ml, po measured up to 24 hrs by LC-MS/MS analysis; type: ADME, organism-based, Canis lupus familiaris
Human orthopneumovirus [28] = assay: Antiviral activity against Respiratory syncytial virus A plaque reduction assay; type: functional, organism-based
[29] = Antiviral activity against Respiratory syncytial virus B plaque reduction assay; type: functional, Human respiratory syncytial virus B
[30] = Oral bioavailability in mouse; type: ADME, organism-based; settings: in vivo

Structure (SMILES): O=c1n(Cc2nc(-c3nccs3)cn2CCCCO)c2cnccc2n1C1CC1
- EC50 (Human orthopneumovirus [1]): 58 nM

Structure (SMILES): O=C(NC1CC1)c1cc2c(s1)-c1ccccc1N(C(=O)c1ccc(NC(=O)c3cccnc3N3CCC4(CC3)COC4)cc1)CC2
- EC50 (Human orthopneumovirus [2]): 10 nM
- EC50 [3]: > 50000 nM

Structure (SMILES): Cc1ccc(NS(C)(=O)=O)c(C(=O)N2CCCC[C@H]2c2cc3nc4c(c(N5CCOCC5)n3n2)CCCC4)c1
- EC50 [4]: 0.56 nM

Structure (SMILES): CC1(C(=O)N2CC3(C2)C(=O)N(Cc2nc4c(n2CCCC(F)(F)F)CCCC4)c2ccccc23)CC1
- EC50 (Human orthopneumovirus [1]): < 100 nM

Structure (SMILES): CNc1nc(N)nc2c1ncn2[C@@H]1O[C@](C)(CO[P@@](=O)(N[C@@H](C)C(=O)OC(C)C)Oc2ccccc2)[C@@H](O)[C@H]1F
- EC50 (Human orthopneumovirus [5]): 0.052 nM

Structure (SMILES): CC(C)OC(=O)N1CCC2(CC1)C(=O)N(Cc1nc3cc(Cl)ccc3n1CCCC#N)c1cnccc12
- EC50 [6]: 0.024 nM

Structure (SMILES): O=c1n(Cc2cc3cnccc3n2CCCC(F)(F)F)c2cnccc2n1CC(F)(F)F
- EC50 [7]: 0.25 nM

Structure (SMILES): CC(C)CCn1c(Cn2c(=O)n(C3CCN(S(C)(=O)=O)CC3)c3ccccc32)nc(=O)c2ccccc21
- EC50 [6]: 5.8 nM

Structure (SMILES): CCc1cc(C(=O)N2CCc3sccc3[C@H]2C)nc2cc(-c3ccc(N4CC[C@H](C(=O)O)C4)cc3F)nn12
- EC50 [4]: 2.75 nM

Structure (SMILES): O=c1n(Cc2cc3cc(Cl)ccc3n2CCCCO)c2cnccc2n1C1CC1
- EC50 [7]: 2 nM

Structure (SMILES): Cc1cc2n(Cc3nc(OCC4CCOC4)c4cc(C#N)ccc4n3)c(=O)c3ccccc3n2n1 (configuration not stated)
- EC50 [6]: 2.8 nM

Structure (SMILES): CC(C)CCn1c(CN2C(=O)C3(CC3)c3ccccc32)nc2cc(CN)ccc21
- EC50 [4]: 31 nM

Structure (SMILES): Cc1cn(Cc2nc3ccccc3s2)c(=O)n(Cc2ccc(-c3csnn3)cc2)c1=O
- EC50 (Human orthopneumovirus [8]): 1600 nM
- EC50 [9]: > 50000 nM

Structure (SMILES): O=C(NC1CC1)c1cc2c(s1)-c1ccccc1N(C(=O)c1ccc(NC(=O)c3ccccc3-c3ccccc3)cc1)CC2
- EC50 (Human orthopneumovirus [2]): 750 nM
- EC50 [3]: > 20000 nM

Structure (SMILES): COC(=O)N1CC2(C1)C(=O)N(Cc1ncc3cc(C)ccc3c1-c1cncnc1)c1ccccc12
- EC50 [6]: 0.2 nM

Structure (SMILES): COc1cc(C(=O)NC[C@@](O)(c2cc3c(c(-c4ccc(F)cc4)n2)NC[C@@]3(C)N)C(F)(F)F)ccc1OCCO
- EC50 [4]: < 1000 nM
- IC50 [10]: < 1000 nM

Structure (SMILES): Cc1cccc(-c2ccc([C@@H]3[C@@H](CO)N4CCCCN(S(=O)(=O)c5cn(C)cn5)C[C@@H]34)cc2)c1
- EC50 (Human orthopneumovirus [8]): 3300 nM
- EC50 [9]: > 50000 nM

Structure (SMILES): NC1CCN(c2ncc(CN3C(=O)C4(CC4)c4ccc(F)cc43)c(NCCCO)n2)C1 (configuration not stated)
- EC50 (Human orthopneumovirus [1]): 34 nM

Structure (SMILES): CCc1ccc(NS(C)(=O)=O)c(C(=O)N(C)[C@@H](CC)c2cc3nc(N4CC[C@H](N)C4)c(C)cn3n2)c1
- EC50 [4]: 0.15 nM

Structure (SMILES): CC(C)OC(=O)N1CC2(C1)C(=O)N(Cc1nc3cc(Br)ccc3n1CCCO)c1ccccc12
- EC50 [6]: 0.8 nM
- bioavailability [11]: 72%

Structure (SMILES): c1coc(-c2nn3c(Cn4cnc5ccccc54)nnc3s2)c1
- EC50 [4]: 660 nM

Structure (SMILES): Cc1cccc2ncnc(N3CCCC[C@H]3c3cc4nc(N5CCC5)cc(N5CCOCC5)n4n3)c12
- EC50 [4]: 10 nM

Structure (SMILES): O=C1N(Cc2nc3cc(Cl)ccc3n2C2CCS(=O)(=O)C2)c2cnccc2C12CC2 (configuration not stated)
- EC50 [6]: 1.9 nM

Structure (SMILES): N#Cc1ccc(-c2ccc3c(c2)[C@H]2[C@H](CCN2C(=O)c2ccccc2F)[C@H](CO)N3)cc1
- EC50 (Human orthopneumovirus [8]): 1400 nM
- EC50 [9]: 6800 nM

Structure (SMILES): O=C(O)c1cc(C(=O)O)n(Cc2ccc(Cl)cc2Cl)n1
- EC50 (Human orthopneumovirus [12]): 122000 nM

Structure (SMILES): Cc1ccc([C@]23Cn4cccc4C(=O)N2CCN3C(=O)c2conc2C)cn1
- bioavailability [13]: 59%
- bioavailability [14]: 100%
- EC50 (Human orthopneumovirus [5]): 8.4 nM

Structure (SMILES): Nc1ccn([C@@H]2O[C@@](CO)(CCl)[C@@H](O)[C@H]2F)c(=O)n1 [ALS-8112]
- EC50 (Human orthopneumovirus [15]): 90 to 450 nM
- EC50 (Human orthopneumovirus [16]): 90 to 450 nM
- EC50 (Human respirovirus 3): 1300 nM
- EC50 (Hepatitis C virus): > 100000 nM
- EC50 (Influenza A virus): > 100000 nM

Structure (SMILES): Cc1cnc(N2CC3(CCOCC3)C2)c(C(=O)Nc2ccc(C(=O)N3CCc4cc(C(=O)Nc5c(C)cccc5F)sc4-c4ccccc43)cc2)c1 [PC-786]
- EC50 (Human orthopneumovirus [17]): 0.5 nM
- EC50 [18]: 27.3 nM
- EC50 [19]: 0.46 nM
- EC50 [20]: 0.46 nM
- EC50 [21]: 0.46 nM
- EC50 [22]: 0.46 nM
- EC50 [23]: 0.46 nM
- EC50 [24]: 20.2 nM

Structure (SMILES): CS(=O)(=O)CCCn1c(Cn2c(=O)n(CC(F)(F)F)c3ccncc32)cc2cc(Cl)ccc21 [RILEMATOVIR]
- EC50 [7]: 0.46 to 0.5 nM
- EC50 (Human orthopneumovirus [25]): 0.2 to 20 nM
- EC50 [26]: 0.2 to 20 nM
- clearance [27]: 9 mL/min/kg

Structure (SMILES): NCc1ccc2c(c1)nc(CN1C(=O)C3(CC3)c3ccc(F)cc31)n2CCCC(F)(F)F [SISUNATOVIR]
- EC50 (Human orthopneumovirus [28]): 0.1 to 1.4 nM
- EC50 [29]: 0.1 to 1.4 nM
- bioavailability [30]: 46%
- bioavailability [14]: 63%

Structure (SMILES): O=C1Nc2ccccc2C(c2ccccc2)=N[C@@H]1Nc1nnc(-c2ncc(C(F)(F)F)cc2N2CCOCC2)o1 [ZELICAPAVIR]
- EC50 [4]: < 400 nM
